Usually IC50 stands for the concentration that inhibits the measured activity by half.

In one experiment the test system is MOLM13. The experiment is described as follows: 7-day proliferation assay (WST-8), cell growth inhibition. The class given is cell-based. Particulars: Homo sapiens, MOLM-13, 168 h, MOLM13 cells, 7 days. In short, it runs like this:
(§1)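 Cells seeded at 2,000-3,000/well were exposed to serially diluted compound for 7 days at 37° C., 5% CO2. Viability was read by WST-8 absorbance at 450 nm after 1-2 h color development; readings normalized to DMSO-treated cells, IC50 by four-parameter nonlinear regression.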

The subject of the next experiment is MV4-11. The experiment is described as above. The class given is cell-based. As to conditions: Homo sapiens, MV4-11, 168 h, MV4-11 cells, 7 days. In short, it runs like this:
as §1

For a further experiment, the target named is T1, menin protein (Homo sapiens, UniProt O00255).
T1 sequence (O00255 1-610): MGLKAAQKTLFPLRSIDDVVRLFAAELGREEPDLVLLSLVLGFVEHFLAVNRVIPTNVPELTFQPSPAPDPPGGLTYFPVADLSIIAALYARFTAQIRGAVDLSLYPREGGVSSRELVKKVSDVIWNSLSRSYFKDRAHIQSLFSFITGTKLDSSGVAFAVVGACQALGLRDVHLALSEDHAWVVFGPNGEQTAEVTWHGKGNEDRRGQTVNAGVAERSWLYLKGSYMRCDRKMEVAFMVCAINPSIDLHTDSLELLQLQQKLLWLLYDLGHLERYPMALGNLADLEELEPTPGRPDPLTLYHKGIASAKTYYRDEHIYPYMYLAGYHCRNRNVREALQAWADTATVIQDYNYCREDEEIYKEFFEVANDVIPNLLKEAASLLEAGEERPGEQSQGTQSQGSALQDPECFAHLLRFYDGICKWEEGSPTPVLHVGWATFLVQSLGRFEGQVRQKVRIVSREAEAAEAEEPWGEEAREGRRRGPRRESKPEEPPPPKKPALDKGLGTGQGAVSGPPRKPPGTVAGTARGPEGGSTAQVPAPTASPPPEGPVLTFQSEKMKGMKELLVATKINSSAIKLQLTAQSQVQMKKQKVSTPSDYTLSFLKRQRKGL
The experiment is described as follows: Fluorescence polarization (FP) competitive binding assay, menin binding affinity. Particulars: FP competition with FAM-MM2 probe 2 nM, menin 4 nM, 30 minutes room temperature. In short, it runs like this:
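Competitive FP with FAM-labeled MLL1 peptide probe FAM-MM2 (2 nM) and menin (4 nM) in PBS, 0.02% bovine γ-globulin, 4% DMSO, 0.01% Triton X-100. After 30 min at room temperature, mP read at 485/530 nm; IC50 from nonlinear regression against probe-only and complex-only controls.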

As to `COC(=O)N[C@H]1CCC[C@@H]1[C@](CN1CCC1)(c1cccc(F)c1)C1CCN(CC2(F)CN(c3ccc(S(=O)(=O)C4CN(C(=O)/C=C/CN(C)C)C4)cc3)C2)CC1` [Cpd. No. 7, methyl ((1S,2R)-2-((S)-2-(azetidin-1-yl)-1-(1-((1-(4-((1-((E)-4-(dimethylamino)but-2-enoyl)azetidin-3-yl)sulfonyl)phenyl)-3-fluoroazetidin-3-yl)methyl)piperidin-4-yl)-1-(3-fluorophenyl)ethyl)cyclopentyl)carbamate], the IC50 in the experiment on MOLM13 is less than 100 nM; in the experiment with MV4-11, less than 10 nM; at menin protein, 2 nM.

Turning to `C=C(CN1CCOCC1)C(=O)N1CC(S(=O)(=O)c2ccc(N3CC(F)(CN4CCC([C@@](CN5CCC5)(c5cccc(F)c5)[C@H]5CCC[C@@H]5NC(=O)OC)CC4)C3)cc2)C1` [Cpd. No. 12, methyl ((1S,2R)-2-((S)-2-(azetidin-1-yl)-1-(1-((3-fluoro-1-(4-((1-(2-(morpholinomethyl)acryloyl)azetidin-3-yl)sulfonyl)phenyl)azetidin-3-yl)methyl)piperidin-4-yl)-1-(3-fluorophenyl)ethyl)cyclopentyl)carbamate], the 50% inhibitory concentration (IC50) is less than 100 nM with MOLM13, less than 10 nM in the experiment on MV4-11 and 2 nM on menin protein.

In the case of `C=C(CN(C)C)C(=O)N1CC(S(=O)(=O)c2ccc(N3CC(F)(CN4CCC([C@@](CN5CCC5)(c5cccc(F)c5)[C@H]5CCC[C@@H]5NC(=O)OC)CC4)C3)cc2)C1` [Cpd. No. 13, methyl ((1S,2R)-2-((S)-2-(azetidin-1-yl)-1-(1-((1-(4-((1-(2-((dimethylamino)methyl)acryloyl)azetidin-3-yl)sulfonyl)phenyl)-3-fluoroazetidin-3-yl)methyl)piperidin-4-yl)-1-(3-fluorophenyl)ethyl)cyclopentyl)carbamate], the 50% inhibitory concentration (IC50) with MOLM13 was less than 100 nM; in the experiment on MV4-11, less than 10 nM; at menin protein, 1 nM.

As for `C=C(CN1CCCCC1)C(=O)N1CC(S(=O)(=O)c2ccc(N3CC(CN4CCC([C@@](CN5CCC5)(c5cccc(F)c5)[C@H]5CCC[C@@H]5NC(=O)OC)CC4)C3)cc2)C1` [Cpd. No. 17, methyl ((1S,2R)-2-((S)-2-(azetidin-1-yl)-1-(3-fluorophenyl)-1-(1-((1-(4-((1-(2-(piperidin-1-ylmethyl)acryloyl)azetidin-3-yl)sulfonyl)phenyl)azetidin-3-yl)methyl)piperidin-4-yl)ethyl)cyclopentyl)carbamate], the 50% inhibitory concentration (IC50) with MOLM13 was less than 100 nM; with MV4-11, less than 10 nM; at menin protein, 2 nM.

`C=C(CN1CCCCC1)C(=O)N1CC(S(=O)(=O)c2ccc(N3CC(F)(CN4CCC([C@@](CN5CCC5)(c5cccc(F)c5)[C@H]5CCC[C@@H]5NC(=O)OC)CC4)C3)cc2)C1` [Cpd. No. 18, methyl ((1S,2R)-2-((S)-2-(azetidin-1-yl)-1-(1-((3-fluoro-1-(4-((1-(2-(piperidin-1-ylmethyl)acryloyl)azetidin-3-yl)sulfonyl)phenyl)azetidin-3-yl)methyl)piperidin-4-yl)-1-(3-fluorophenyl)ethyl)cyclopentyl)carbamate]: the 50% inhibitory concentration (IC50) in the experiment with MOLM13 is less than 100 nM; in the experiment with MV4-11 it was less than 10 nM; on menin protein it was 2 nM.

Consider `C=C(CN1CCCC1)C(=O)N1CC(S(=O)(=O)c2ccc(N3CC(CN4CCC([C@@](CN5CCC5)(c5cccc(F)c5)[C@H]5CCC[C@@H]5NC(=O)OC)CC4)C3)cc2)C1` [Cpd. No. 19, methyl ((1S,2R)-2-((S)-2-(azetidin-1-yl)-1-(3-fluorophenyl)-1-(1-((1-(4-((1-(2-(pyrrolidin-1-ylmethyl)acryloyl)azetidin-3-yl)sulfonyl)phenyl)azetidin-3-yl)methyl)piperidin-4-yl)ethyl)cyclopentyl)carbamate], for which the IC50 is less than 100 nM in the experiment on MOLM13, less than 10 nM in the experiment on MV4-11 and 1 nM on menin protein.

Source of the values: US20210115018A1, “PIPERIDINE COMPOUNDS AS COVALENT MENIN INHIBITORS” (THE REGENTS OF THE UNIVERSITY OF MICHIGAN, priority 2018, published 2021).
